The values that follow come from patent US20240307372A1, “COMPOSITIONS AND METHODS TO IMPROVE BENEFIT OF SUBOPTIMALLY ADMINISTERED THERAPEUCTICS FOR THE TREATMENT OF BENIGN AND NEOPLASTIC DISEASES, INFECTIONS, INFLAMMATORY, METABOLIC AND IMMUNOLOGIAL DISEASES” (priority 2023, published 2024).

For assay [1], the system named is human chronic myeloid leukemia (CML) progenitors. The experiment in a line: Colony forming cell (CFC) assay on CML patient bone marrow cells, methylcellulose-based medium. On the procedure:
An in vitro investigation was performed to determine whether TET has efficacy on human chronic myeloid leukemia (CML) stem-like cells. A colony forming cell (CFC) assay was performed on bone marrow cells from a de-novo CML patient.
Human bone marrow light density cells derived from CML patient bone marrow (Conversant Bio, Alabama), were stored in the gaseous phase of liquid nitrogen until required. On the day of the experiment, the cells were thawed rapidly, the contents of the vial were diluted in 10 mL of Iscove's Modified Dulbecco's Medium containing 10% fetal bovine serum (IMDM+10% FBS) and washed by centrifugation (approximately 1200 r.p.m. for 10 minutes, room temperature). The supernatant was discarded and the cell pellets resuspended in a known volume of IMDM+10% FBS. A cell count (3% glacial acetic acid) and viability assessment (trypan blue exclusion test) […] Tetrandrine (10 μM) for 14 days. After treatment, primary and secondary colonies were grown and analyzed by qPCR to determine BCR-ABL or ABL only cells.
Human erythroid (CFU-E and BFU-E) and myeloid (CFU-GM) colony enumeration were performed by trained personnel. In addition, the distribution of colony types as well as general colony and cellular morphology were analyzed. […] For statistical analysis, colony numbers in compound-treated cultures were compared to the solvent control cultures.

The test system of assay [2] is human breast, colon carcinoma, and hepatoma cell lines. Particulars: read-out: IC50 range; cited from earlier work.
In assay [3] the test system is leukemic cells and leukemic stem cells. Put plainly: BCR-ABL CML mouse model (bone marrow transplantation), oral treatment. It is filed as in vivo. The settings on record: mice, orally, 150 mg/kg, 1×/day. On the procedure: In an in vivo model, the effectiveness of Tetrandrine was tested on CML stem cells. The objective of the study was to determine the survival of leukemic cells and leukemic stem cells in response to the treatment with Tetrandrine. After priming donor C57BL/6 (B6) mice with intravenous injections of 5-fluorouracil for four days, bone marrow cells were harvested from femurs and tibia, then transfected twice with retrovirus containing MSCV-BCR-ABL-IRES-GFP. Recipient mice were lethally irradiated by two doses of 550 cGy before bone marrow transplantation by intravenous injection with 5×10^5 cells/mouse. Blood from recipient mice was tested for disease induction one week after transduction by FACS analysis for GFP (FIG. 7A). […] Treatments started on day 8 after bone marrow transplantation (FIG. 7B).

For “6,6′,7,12-tetramethoxy-2,2′-dimethyl-berbaman [ES-3000]”, in assay [1] (10 μM), the CFU-GM colonies was determined as 26 ± 2. In addition, the “Total CFC” value in assay [1] (10 μM) was found to be 26 ± 2. The IC50 was 9.56 ± 1.25 µM in assay [1] (read-out: Myeloid IC50 ± 95% CI, Human progenitors) and 1.53 to 10.4 µM in assay [2]. Further, the “inhibiting the development of circulating leukemic cells” value in assay [3] (listed as TET) is “reduced the development of leukemic cells in the peripheral blood”; in assay [3] (listed as Tetrandrine), “superior to Imatinib”. The entries for the “inhibiting the development of leukemic stem cells” value in assay [3] (listed as TET) and in assay [3] (listed as Tetrandrine) were “reduced the development of” and “superior to Imatinib”, respectively.

A word on the IC50: it is the concentration that gives 50% inhibition.
